Results on one compound are retold here after US20220023269A1, “Methods Of Treating Diabetes In Severe Insulin-Resistant Diabetic Subjects” (Balticgruppen Bio AB, priority 2018, published 2022).

Assay [1] has as its system hIAPPtg islets. Nature of the assay: Ex vivo islet amyloid assay. It counts as cell-based, mouse. The note with it: 22 mM glucose. The protocol:
Islets amyloid was quantification was done on pancreatic tissues isolated from hIAPPtg mice on HFD for 16 weeks (n=7 mice/n=69 islets) and hIAPPtg mice on HFD for 9 weeks then switched to test material-HFD (2 mg/g) for 7 weeks (n=5 mice/n=48 islets). Isolated pancreases was direct frozen, sectioned, and amyloid content quantified by staining with Thioflavin-S as previously described (Reference 2). For ex vivo analyses, islets were isolated by collagenase digestion of the pancreas (Reference 1) and cultured in RPMI medium 1640 (GIBCO #11879-0) supplemented with 11.1 or 22.2 mM glucose (GIBCO #A24940-01), 1% fetal bovine serum (GIBCO #10500), 50 U; μg/ml Pen/Strep (Gibco #15140-122), 10 mM Hepes (Umeå University, Laboratory medicine), 1 mM sodium pyruvate (GIBCO #11360-039) and 0.1% 2-Mercaptoethanol (Sigma #M3148). 0, 2.5, 5.0, and 10 μM test material were added from day 0 of culture. For assessing the effect of autophagy inhibition, 3-Methyladenine (3-MA, Aldrich #M9281), 5 μM, was added from day 0 of culture in combination with test material, 5 μM. The control contained DMSO 1:2000. Medium and compounds were changed every second day. After 92 hours of treatment islets were embedded, sectioned and amyloid content quantified by staining with Thioflavin-S as previously described (Reference 2). A minimum of 3 independent experiments was evaluated.

The test system of assay [2] is patients suffering from type-2 diabetes. Nature of the assay: Renal hemodynamics / glomerular perfusion in humans. It counts as in vivo, human.
The test system of assay [3] is CBA mice on HFD. Description: In vivo lipogenesis. Particulars: 2 mg/g in HFD, 5 weeks. The protocol:
After 90 minutes 0.2-0.3 g liver were isolated and homogenised in 3 ml PBS before addition of 6 ml chloroform/methanol (2:1). Samples were mixed until phase separation no longer occurred and left at RT 30 minutes before centrifuged, 4,500 rpm, 5 minutes. The water phase was removed and 3 ml chloroform transferred to a scintillation vial and evaporated to dryness by a stream of nitrogen while standing in a 40° C. water bath. The residue was dissolved in 3 ml optiphase hisafe 3 (Perkin Elmer #1200.437) and ^3H determined for 1 minute in a Wallac 1414 counter. ^3H values were normalised to liver weight.

The subject of assay [4] is primary human hepatocytes. Nature of the assay: [1,2-14C] acetate incorporation into total lipids. Particulars: 0.625, 1.25, 2.5 or 5 μM. It counts as cell-based. The protocol: Primary human hepatocytes (65,000-130,000 cells/well in 24-well dishes) were treated with vehicle control, 0.625, 1.25, 2.5 or 5 μM test material in serum free Williams' medium E, 2 hours, before addition of 0.25 μCi [1,2-^14C]-acetate/well for an additional 4 hours. 200 μl 0.5% trypsin was used to detach the cells before addition of 800 μl chloroform/methanol (2:1) and 500 μl 4 mM MgCl2. The samples were vortexed and spun at 14,000 rpm, 2 minutes before discarding the aqueous layer. The procedure was repeated twice, first with 700 μl chloroform/methanol (2:1) and 500 μl 4 mM MgCl2 and then 400 μl chloroform/methanol (2:1) and 500 μl 4 mM MgCl2. The organic phase was transferred into a scintillation vial and evaporated to dryness by a stream of nitrogen. The residue was dissolved in 3 ml liquid scintillation cocktail (Optiphase HiSafe 3, Perkin Elmer #1200.437) and 14 C determined for 1 minute in a Wallac 1414 beta counter (Perkin Elmer). Before lipid extraction, 10 μl samples were used to determine protein concentration. 14 C-values were normalised to cellular protein concentration.

For assay [5], the system named is CBA mice on HFD. Nature of the assay: Arginine-stimulated insulin secretion. The note with it: 0.8 mg/g in HFD, 11 w; arginine 1 g/kg i.p. It counts as in vivo.
Procedure: Arginine-stimulated insulin secretion was determined following i.p. injection of arginine (SIGMA #A5131) (1 g/kg body weight) in non-fasted 21 weeks old CBA mice that had been on HFD or test material-HFD (0.8 mg/g) for 11 w. Blood glucose was measured using Glucometer (Ultra 2, One Touch) and plasma insulin analysed via the ultrasensitive mouse insulin ELISA kit (Chrystal Chem Inc. #90080). Area under the Curve (AUC) was calculated according to the trapezoid rule.

As to `O=C(Nc1nc(=O)n(Cc2ccc(Cl)cc2)s1)c1ccc(Cl)cc1` [test material, 4-chloro-N-[2-[(4-chlorophenyl)methyl]-3-oxo-1,2,4-thiadiazol-5-yl]benzamide], in assay [1] (5.0 μM test material + 5.0 μM 3-MA), the “preventive effect on amyloid formation in presence of autophagy inhibitor 3-MA” value is “significantly attenuated”. Besides, the “amyloid formation (Thio-S+ deposits)” value in assay [1] (2.5, 5.0, 10 μM, dose-dependent) is given as “attenuated amyloid formation”. In addition, the “microvascular perfusion in glomeruli” value in assay [2] (humans) was “positive effect on microvascular perfusion in glomeruli”. Besides, in assay [2] (patients suffering from type-2 diabetes), the renal hemodynamics entry is recorded as “positive effects on renal hemodynamics”. Moreover, the “reduction of hepatic DNL” value in assay [3] is on record as approximately 45%. For the same compound, the lipid synthesis result in assay [4] was “dose-dependently suppressed lipid synthesis”. In addition, the “arginine stimulation of insulin secretion, increase vs HFD” value in assay [5] was found to be 2 fold.
